# “Also recorded” adds a separate entry of the source.
# Tests used:
# PR protein expression = assay: Western blotting for PR in doxorubicin-treated T47D cells expressing inducible PR (PARP cleavage assay); assay type: cell-based, human; details: doxorubicin 8 uM, 24 h
# Protocol: Poly (ADP)-ribose polymerase 1 (PARP) cleavage assays were used to measure the level of apoptosis in cell cultures after treatment with cytotoxic concentrations of doxorubicin. T47D cells expressing inducible PR were plated in 10 cm dishes (2×10^6 cells/dish) in cMEM and induced with AP21967 (10^−9 M). Cells were washed, induced, and serum starved for 4 d. Cells were then treated with R5020 (10^−8M) for 6 h before adding doxorubicin (8 uM) to dishes for 24 h. Protein was harvested using standard RIPA lysis buffer, subjected to SDS-PAGE and western blotting using cleaved-PARP and PR antibodies. Beta-actin western blotting was performed for sample loading controls.
# [1] = test system: T47D cells expressing inducible PR (iWT, iKR); assay: MTT proliferation assay in T47D cells expressing inducible PR; assay type: cell-based, human; details: cells expressing iWT or iKR PRs vs un-induced or untreated counterparts; R5020
# Protocol: Cell proliferation was measured using MTT assays (3-[4,5-dimethylthiazol-2-yl]-2,5-diphenyltetrazolium bromide, Sigma catalog #M2128). In 24-well plates, 1×10^4 cells/well were plated in cMEM (inducible PR expression was induced with AP21967 (10^−9 M) for 2 days), cells were washed and steroid starved in modified IMEM supplemented with 5% dextran-coated charcoal-treated (DCC) FBS for 1 day before the addition of R5020 (10^−8 M). At days 0, 2, 4, 6, cell proliferation was determined by adding 60 ul MTT (5 mg/ml) to each 0.5 ml cell culture well for 3 hours, medium was carefully removed and solublization solution (90% v/v DMSO/PBS) was added to lyse the cells. Lysate absorbance (650 and 570 nm) was measured using a plate reader. 650 nm measurements were subtracted from 570 nm measurements and sample means were normalized to day zero.
# [2] = test system: PR Ser294 phosphorylation; assay: Western blotting for PR Ser294 phosphorylation in BT-474 cells; assay type: cell-based, human
# Protocol: (§1) T47Dco parental cell lines were characterized previously (Horwitz et al., 1982). T47D cells stably expressing PR were created by molecular cloning of cDNAs encoding either WT, K388R, S294A, or K388R/S294A PR into a pIRES-neo3 expression vector (Clontech, catalog #631621), followed by transfection of vectors into T47D-Y cells (Sartorius et al., 1994) using FuGENE HD (Roche, catalog #04709713001). Single-cell clones were expanded under high G418 selection (500 ug/ml) and maintained in low G418 selection (200 ug/ml) (EMD Chemicals, catalog #345810). These cells were maintained in complete minimal essential medium (cMEM) supplemented with 5% fetal bovine serum (FBS), 1% non-essential amino acids (NEAA), 1% penicillin/streptomycin, 6 ng/ml insulin (CellGro, catalog #10-010-CV). T47D cells expressing inducible PR were described previously (Hagan et al., 2011). Inducible PR expression was achieved by adding AP21967 (10^−9 M, Ariad Pharmaceuticals, Cambridge, Mass.) to cell culture medium for a minimum treatment time of 2 d. MCF-7 cell lines expressing PR were created by transfection of pIRES-neo3 vectors containing cDNA inserts encoding either WT or KR PR into cells using FuGENE HD. Single-cell clones were expanded under high G418 selection and maintained in low G418 selection. […]
# [3] = test system: PR target genes (CHN2, RGS2, ACOT6) in BT-474 human breast cancer cells; assay: RT-qPCR of PR target genes in BT-474 cells, with or without MEK inhibitor; assay type: cell-based
# Protocol: For reverse transcription quantitative polymerase chain reaction (RT-qPCR) assays, 5×10^5 cells/well were plated in 6-well dishes, serum starved in modified IMEM for 1 day before treatments (see individual figures). RNA was extracted using TriPure reagent (Roche, catalog #11667157001) and cDNA was created using the Transcriptor cDNA first-strand cDNA synthesis kit (Roche, catalog #04897030001). Relative expression levels were determined by qPCR assays performed on a Roche LightCycler II using SYBR green master-mix (Roche, catalog #04887352001). Target gene quantification levels were normalized to the expression of standard housekeeper genes: TBP, ACTB, and/or GAPDH. For cells expressing inducible PR, the protocol was the same as above, except prior to ligand treatments, the cells were induced with AP21967 (10^−9 M) for 2 d.
# For experiments using MEK inhibitors, BT-474 cells were plated in […] dishes at 5×10^5 cells/well. One day later, the cells were washed and serum starved in modified IMEM for 1d. These cells were pre-treated with the MEK inhibitor U0126 (5 uM, EMD Chemicals, catalog #662005) for 30 min R5020 (10^−8 M) and/or RU486 (10^−7 M) was then added to cell culture wells for 6 h before RNA/protein isolation and RT-qPCR/western blotting was performed, as described above.
# [4] = test system: RGS2 expression in T47D cells expressing WT PR or KR PR; assay: RT-qPCR of PR target genes in T47D cells stably expressing WT or KR PR; assay type: cell-based, human; details: R5020 6 h
# Protocol: as §1, with “2011).” for “2011). Inducible PR expression was achieved by adding AP21967 (10^−9 M, Ariad Pharmaceuticals, Cambridge, Mass.) to cell culture medium for a minimum treatment time of 2 d. MCF-7 cell lines expressing PR were created by transfection of pIRES-neo3 vectors containing cDNA inserts encoding either WT or KR PR into cells using FuGENE HD. Single-cell clones were expanded under high G418 selection and maintained in low G418 selection.”
# For reverse transcription quantitative polymerase chain reaction (RT-qPCR) assays, 5×10^5 cells/well were plated in 6-well dishes, serum starved in modified IMEM for 1 day before treatments (see individual figures). […] Relative expression levels were determined by qPCR assays performed on a Roche LightCycler II using SYBR green master-mix (Roche, catalog #04887352001). Target gene quantification levels were normalized to the expression of standard housekeeper genes: TBP, ACTB, and/or GAPDH. […]
# [5] = test system: PR target genes in T47D cells expressing WT PR, SUMO-deficient PR (KR) or empty vector; assay: Gene expression profiling (Illumina HT-12v4) of T47D cell lines treated with progesterone or antiprogestins; assay type: cell-based, human; details: for expression of progesterone-regulated PR target genes: T47D cells expressing SUMO-deficient PR (KR), antiprogestin 10^−7 M alone or plus progesterone 10^−8 M
# Protocol: T47D cells stably expressing pIRES-neo3 empty vector, WT or KR PR were serum starved in modified IMEM (Gibco, catalog #A10488) for 1 day, treated with R5020 (10^−8 M) or vehicle control for 6 h before RNA extraction using a RNeasy kit (QIAgen, catalog #74104). Six h of progestin treatment allowed for substantial PR-dependent gene expression as compared to prior studies (Jacobsen et al., 2005; Richer et al., 2002). DNase I treated (QIAgen, catalog #79254) RNA samples from duplicate experiments were prepared for expression analysis using the Illumina HT-12v4 bead chip platform according to manufacture's protocols. Data were analyzed within R software using the Bioconductor (Gentleman et al., 2004) package called lumi where raw intensities were log2 transformed and quantile normalized. Differentially expressed genes were analyzed using the limma package, where empirical Bayes was used to better estimate the variance of the genes. Gene expression data presented contain log2 normalized intensities and biological comparisons presented (e.g. R5020/vehicle) contain log2 fold change with the Benjamini and Hochberg (BH) adjusted P value (Benjamini and Hochberg, 1995). To generate the heat map in FIG. 1C, unsupervised hierarchical clustering of genes was carried out using heatmap. 2 function in the R package gplots. Clustering was performed using Euclidean distance and complete linkage. Rows were scaled to have mean zero and standard deviation equal to one.
# Gene expression profiles in T47D cell lines treated with antiprogestins were obtained using identical methods as described above, except for these notable differences. After serum starvation, cells stably expressing empty vector, WT, or KR PR were treated for 6 hours under one of eight possible conditions: (1) ethanol (vehicle control), (2) progesterone (10^−8 M), (3) RU486 (10^−7 M), (4) aglepristone (10^−7 M), (5) onapristone (10^−7 M), (6) RU486 (10^−7 M) plus progesterone (10^−8 M), (7) aglepristone (10^−7 M) plus progesterone (10^−8 M), or (8) onapristone (10^−7 M) plus progesterone (10^−8 M). Gene expression levels were measured, normalized, analyzed, and heat maps were generated using the methods described above.
# Raw microarray data from two independent microarray experiments (both performed using the Illumina HT-12v4 platform described above) were combined and normalized together within R software using the Bioconductor (Gentleman et al., 2004) package called lumi where raw intensities were log 2 transformed and quantile normalized.
# Sample Sizes & Composition: For the first analysis, two KR cell replicates were used that had been stimulated with R5020 a synthetic progestin in the first experiment and three KR cell replicates that had been stimulated with progesterone in the second experiment. The same was accomplished regarding the corresponding WT cell replicates. Pertaining to the first analysis, therefore, a sample size of n=5 was used for each of the two groups (KR & WT). Regarding the second analysis, we used three KR cell replicates that had been co-treated with progesterone plus onapristone in the second experiment; and we used three WT cell replicates that had been co-treated with progesterone plus onapristone also in the second experiment (n=3 for each of the two groups). Regarding the third analysis, we used three KR cell replicates that had been co-treated with progesterone plus RU486 in the second experiment; and we used three WT cell replicates that had been co-treated with progesterone plus RU486 also in the second experiment (n=3 for each of the two groups). Regarding the fourth analysis, three KR cell replicates was used that had been co-treated with progesterone plus onapristone; and three WT cell replicates were used that had been treated with vehicle control (ethanol) (n=3 for each of the two groups). […]
# [6] = test system: MAP1A and RGS2 mRNA in T47D cells stably expressing WT PR; assay: RT-qPCR with epidermal growth factor (EGF) treatment in T47D cells expressing WT PR; assay type: cell-based, human
# Protocol: For RT-qPCR assays involving epidermal growth factor (EGF) treatment, cells were plated at 5×10^5 cells/well in 6-well dishes and serum starved for 2 days in modified IMEM. Cells were pre-treated with 100 ng/ml EGF (Sigma, catalog #E9644) before treatment with R5020 (10^−8 M).
# [7] = pre-treatment with U0126 5 uM for 30 min
molecule,measurement,setting,value
"COc1cccc2c1C(=O)c1c(O)c3c(c(O)c1C2=O)C[C@@](O)(C(=O)CO)C[C@@H]3O[C@H]1C[C@H](N)[C@H](O)[C@H](C)O1 [Doxorubicin, doxorubicin]",WT and KR PR protein expression,PR protein expression,reduced
CCC(=O)[C@@]1(C)CC[C@H]2[C@@H]3CCC4=CC(=O)CCC4=C3CC[C@@]21C [R5020],cell growth,[1],grew faster
same,PR-B Ser294 phosphorylation,[2]; R5020 treatment,elevated
same,ACOT6 expression,"[3]; R5020 10^−8 M, 6 h",induced
same,upregulation of CHN2 mRNA,"[3]; R5020 10^−8 M, 6 h",17 fold
same,upregulation of RGS2 mRNA,"[3]; R5020 10^−8 M, 6 h",26 fold
same,RGS2 expression response to R5020,[4]; T47D cells expressing KR PR,~20 fold
same,RGS2 expression response to R5020,[4]; T47D cells expressing WT PR,~2 fold
N#CC(=C(/N)Sc1ccccc1N)/C(C#N)=C(\N)Sc1ccccc1N [U0126],R5020-induced PR Ser294 phosphorylation,[2]; [7],blocked
same,R5020-induced ACOT6 expression (control gene),"[3]; MEK kinase inhibition, U0126 5 uM",completely insensitive
same,R5020-induced CHN2 and RGS2 expression,[3]; [7],"partially, but significantly, diminished"
"C/C=C\[C@]1(O)CC[C@H]2[C@@H]3CCC4=CC(=O)CCC4=C3[C@@H](c3ccc(N(C)C)cc3)C[C@@]21C [aglepristone, (8S,11R,13S,14S,17R)-11-(4-dimethylaminophenyl)-17-hydroxy-13-methyl-17-[(Z)-prop-1-enyl]-1,2,6,7,8,11,12,14,15,16-decahydrocyclopenta[a]phenanthren-3-one]",expression of progesterone-regulated PR target genes,[5]; 6 h,caused many PR target genes to become upregulated
same,agonistic activity,[5]; cells expressing hyperactive / SUMO-deficient PR (KR),substantial agonistic activity; also recorded: agonistic properties
"CN(C)c1ccc([C@H]2C[C@]3(C)[C@@H](CC[C@]3(O)CCCO)[C@@H]3CCC4=CC(=O)CCC4=C32)cc1 [onapristone, (8S,11R,13R,14S,17S)-11-[4-(dimethylamino)phenyl]-17-hydroxy-17-(3-hydroxypropyl)-13-methyl-1,2,6,7,8,11,12,14,15,16-decahydrocyclopenta[a]phenanthren-3-one]",number of the 29 KR>WT genes stimulated by onapristone treatment alone,"[5]; KR cells, onapristone alone",none
same,number of the 29 KR>WT genes stimulated by onapristone plus P4 treatment,"[5]; KR cells, onapristone plus P4",13 genes
same,"number of genes significantly differentially expressed, KR cells (onapristone plus progesterone) vs WT cells (ethanol)","[5]; KR treated with onapristone plus progesterone, WT treated with vehicle control",5 genes
same,expression of progesterone-regulated PR target genes,[5]; 6 h,did not cause these PR target genes to be upregulated; also recorded: do not stimulate gene expression
same,"number of genes significantly differentially expressed, WT cells (progesterone plus onapristone) vs WT cells (ethanol)",[5]; WT cells,only one gene
same,number of genes significantly differentially expressed between KR and WT cells,[5]; both cell lines co-treated with progesterone plus the antiprogestin,8 genes
same,significant differential expression of the 15 biomarker genes between KR and WT cells,"[5]; both cell lines co-treated with progesterone plus the antiprogestin, with the exception of one gene (CDH10)",completely annulled
same,antagonist activity,[5]; cells expressing WT or KR PR,effective antagonist
same,reversal of the effects of progesterone exposure,"[5]; cells expressing activated PR (KR), onapristone in the presence of progesterone",can effectively reverse
same,inhibition of expression of PR target genes,[5]; cells that express hyperactive PR (phosphorylated and deSUMOylated; KR),can successfully inhibit
same,reversal of transcriptional differences induced by progesterone,"[5]; cells with a WT PR receptor, progesterone plus onapristone",almost completely reverse
CC(=O)[C@H]1CC[C@H]2[C@@H]3CCC4=CC(=O)CC[C@]4(C)[C@H]3CC[C@]12C [progesterone],gene expression after progesterone (P4) treatment,"[5]; both WT and KR cells, progesterone 10^−8 M, 6 h",significantly upregulated
"EGF: epidermal growth factor (Sigma) (NSDSECPLSHDGYCLHDGVCMYIEALDKYACNCVVGYIGERCQYRDLKWWELR; Epidermal growth factor; UniProt P01133 971-1023, looked up)",MAP1A and RGS2 mRNA expression,[6]; EGF alone (100 ng/ml) over a 2-day time course,insensitive
same,progestin stimulated mRNA expression of MAP1A and RGS2,[6]; EGF pre-treatment (100 ng/ml) followed by R5020 10^−8 M,significantly augmented

# — patent US10501800B2, “Breast cancer prognosis” (Regents of the University of Minnesota, priority 2012, dated 2019)
